Data from PMC10295947 (Biomolecules, 2023).
Structures can show the parent of a compound that is named as a salt.

Molecular target: MOR (Mus musculus, UniProt P42866)
Type: biochemical

Sequence of MOR (P42866 whole entry): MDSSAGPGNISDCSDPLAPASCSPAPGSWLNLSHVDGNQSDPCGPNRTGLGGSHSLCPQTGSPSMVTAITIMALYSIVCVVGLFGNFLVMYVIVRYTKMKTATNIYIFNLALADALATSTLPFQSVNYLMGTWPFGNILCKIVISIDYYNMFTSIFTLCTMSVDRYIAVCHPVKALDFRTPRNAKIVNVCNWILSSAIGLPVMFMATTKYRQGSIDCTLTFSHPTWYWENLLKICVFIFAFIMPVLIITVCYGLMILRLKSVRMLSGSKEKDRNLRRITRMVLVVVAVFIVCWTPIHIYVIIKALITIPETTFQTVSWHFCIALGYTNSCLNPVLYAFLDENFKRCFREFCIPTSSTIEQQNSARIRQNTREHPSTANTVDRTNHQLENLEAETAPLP

SMILES: COc1ccsc1CNCC[C@@]1(c2ccccn2)CCOC2(CCCC2)C1 [oliceridine, Oliceridine hydrochloride]
- Stimulation of 35S-GTPγS binding (in words): no measurable stimulation
